Measured values published in patent US10457700B2, “Platinum prodrugs and methods of making and using thereof” (UNIVERSITY OF GEORGIA RESEARCH FOUNDATION, INC., priority 2015, dated 2019).

Experiments:
PC3 cells = assay: MTT cytotoxicity assay in PC3 cells; format: cell-based, human
Procedure: (§1) Human prostate cancer cell line PC3 and DU145 were procured from the American type culture collection (ATCC). Ovarian cancer A2780 cells were obtained from Prof, Robert Brown, Imperial College London. […] Cells were passed every 3 to 4 days and restarted from frozen stocks upon reaching 20 passages.
(§2) PC3, A2780, or A2780/CP70 cells (2000 cells/well/100 μL) were seeded on a 96-well plate in 100 μL of desired medium and incubated for 24 h. After 24 h, media was removed and fresh media was added. The cells were treated with different constructs at varying concentrations and incubated for 72 h at 37° C. in 5% CO2. The cells were then treated with 20 μL of MTT (5 mg/mL in PBS) for 5 h. The medium was removed, the cells were lysed with 100 μL of DMSO, and the absorbance of the purple formazan was recorded at 550 nm using a Bio-Tek Synergy HT microplate reader. The background absorbance for each well was measured at 800 nm. Each well was performed in triplicate. […] Cells were grown for 7 days in high glucose medium prior to the MTT experiment. Cytotoxicity was expressed as mean percentage increase relative to the unexposed control±SD. Control values were set at 0% cytotoxicity or 100% cell viability.

A2780/CP70 cells [1] = assay: MTT cytotoxicity assay in cisplatin resistant A2780/CP70 cells; format: cell-based, human; conditions: 72 h
Procedure: as §1, §2

[2] = test system: intracellular GSH in A2780/CP70 cells; assay: Cellular GSH assay with ThiolTracker Violet, flow cytometry; format: cell-based, human; conditions: 10 μM, 12 h
Procedure: The ability of Platin-B to interact with intracellular GSH in A2780/CP70 cells was investigated using the ThiolTracker Violet GSH detection reagent. Specifically, A2780/CP70 cells (4×10^5 cells/well/2 mL) were plated onto 6 well culture plates and allowed to grow overnight. […] After 12 h, both the attached and detached cells were collected by trypsinization, washed with PBS, and resuspended in Dulbecco's PBS (D-PBS) containing Ca^2+ and Mg^2+, glucose, and sodium pyruvate. The cells were then incubated with 10 μM (final concentration) ThiolTracker Violet for 30 min at 37° C. The cells were then washed with D-PBS, resuspended in buffer, and immediately analyzed on a flow cytometer with 405 nm excitation and 525 nm emission filters. The ThiolTracker Violet stain is a highly thiol reactive fluorescent probe and can be utilized in effective detection of intracellular GSH by quantitative detection modalities such as flow cytometry.

[3] = test system: mitochondrial respiration of A2780/CP70 cells; assay: MitoStress test, Seahorse XF24 (OCR); format: cell-based, human; conditions: 1 μM, 24 h
Text: Prior to the assay, XF sensor cartridges were hydrated. […] The parameters calculated included: basal respiration (baseline respiration minus antimycin-A post injection respiration), ATP turnover (baseline respiration minus oligomycin post injection respiration), maximal respiratory capacity (FCCP stimulated respiration minus antimycin-A post injection respiration) and reserve respiratory capacity (FCCP stimulated respiration minus baseline respiration).

[4] = Cyclic voltammetry, Pt(IV)/Pt(II) reduction potential; format: physicochemical; conditions: 0.1 M KCl
Procedure: Redox potential of platinum (IV) prodrugs play important roles in regulating efficacy. The disclosed Pt(IV) prodrugs can be activated selectively by intracellular reduction, preferably at the tumor sites to reduce side effects. Redox potential is a measure of the ability of Pt(IV) compounds to form the active platinum (II) species. Electrochemical measurements on Platin-B were carried out in dimethylformamide (DMF)-phosphate buffered saline (PBS) at pH 6.0 and 7.4. Specifically, a conventional three-electrode set-up comprising a glassy carbon working electrode, platinum wire auxiliary electrode, and Ag/AgCl (3M KCl) reference electrode was used for electrochemical measurements. The electrochemical data were uncorrected for junction potentials. KCl was used as a supporting electrolyte. Platin-B (2 mM) solutions were prepared in 40% DMF phosphate buffered saline (PBS) of pH 6.0 and 7.4 with 0.1 M KCl and voltammograms were recorded at different scan rates.

A2780/CP70 cells [5] = assay: Apoptosis detection by Annexin V-PI assay; format: cell-based, human; conditions: 50 μM, 12 h
Procedure: Enhanced activity of Platin-B in A2780/CP70 cells was further confirmed by Annexin-V-propidium iodide (PI) apoptosis-necrosis assay. […] The cells were trypsinized, repeatedly washed collecting the supernatants, and centrifuged at 754×g for 3 min, and the supernatants were collected. Cell density was determined and cells were resuspended in 1× annexinV-binding buffer to 1×10^6 cells/mL preparing a sufficient volume to have 100 μL per assay. To 100 μL of cell suspension, 5 μL ALEXA FLUOR™ 488 annexin V and 1 μL of 100 μg/mL PI working solution were added, incubated for 15 min at room temperature. After the incubation period, 400 μL of 1× annexin-binding buffer was added to each sample, samples were gently mixed keeping the samples on ice, and the samples were analyzed on the flow cytometer immediately.

GST enzyme = assay: GST enzymatic substrate competitive assay / cellular GST activity assay; format: biochemical; conditions: 50 or 100 μM, in buffer or A2780/CP70 cell lysates
Procedure: GST enzyme modulates GSH to attack on labile electrophilic halide containing molecules in cellular detoxification processes. […] GST enzymatic activity was evaluated by following the formation of GSH and 1-chloro-2,4-dinitrobenzene (CDNB) adduct.
This assay was performed according to the instruction given by the manufacturer (GST activity assay kit ab65326). AU the standard solutions were prepared as per the instruction. Samples were prepared in a total 50 μL volume with GST assay buffer, including a negative control with 50 μL of GST assay buffer only and a positive control (10 μL of GST positive control diluted to 1:50) and 40 μL of GST assay buffer only. Sample wells contained 10 μL of GST enzyme diluted to 1:50 and remaining of GST assay buffer. To each well, 5 μL GSH was added. 50 μL of substrate mix containing GST substrate CDNB (5 μL) was prepared. […] Then, 50 μL of substrate mix was added to each well including controls. The plate was stirred carefully to initiate the reaction and absorbance values were recorded once every minute at 340 nm using a plate reader to obtain 20 data points. GST activity was calculated through the kinetic plot obtained from the time (min) vs. optical density (OD340 nm) using the formula GST activity=ΔA340 min^−1/0.002777 μM·D/A, where D is the enzyme sample dilution factor and A is the enzyme sample volume added to each well. […]

[6] = test system: citrate synthase activity in A2780/CP70 cells; assay: Citrate synthase activity assay; format: cell-based, human; conditions: 1 μM, 24 h
Procedure: Citrate synthase activity assay was performed by following the instruction given in MitoCheck Citrate Synthase Activity assay kit (Cayman item no. 701040). Briefly, A2780/CP70 cells were seeded at a density of 1.2×10^6 cells/7 mL in 25 cm^2 cell culture flask and grown overnight. […] The cells were then scraped in presence of fresh media and centrifuged to obtain the cell pellet. The resultant pellet was washed 2 times with 1×PBS and solubilized in 200 μL extraction buffer. This cell suspension was incubated on ice for 20 min followed by centrifugation at 16000×g for 20 minutes at 4° C. The supernatant was collected and used for measuring the citrate synthase activity after 1:200 dilutions. Protein concentration in the samples was measured using BCA assay. […] Finally 20 μL of the substrate oxaloacetate from tube B was added to each well and absorbance was recorded immediately at 412 nm (50 seconds interval for 30 min at room temperature). The citrate synthase activity was calculated through the kinetic plot obtained from the time (min) vs. optical density (OD=412 nm) using the formula: CS Activity=(ΔA412 min−1/5.712 mM−×0.1 mL/0.03 mL)×sample dilution nmoles/min/mL. […]

Compound | IC50 (PC3 cells; 72 h) [µM] | IC50 (A2780/CP70 cells [1]) [µM] | effect on intracellular GSH levels [2] | effect on mitochondrial respiration (OCR) [3] | IC50 (PC3 cells; Homo sapiens, PC-3, 72 h) [µM] | IC50 (A2780/CP70 cells [1]; Homo sapiens) [µM] | Pt(IV)/Pt(II) couple reduction potential ([4]; pH 6.0, 40% DMF-PBS) | Pt(IV)/Pt(II) couple reduction potential ([4]; pH 7.4, 40% DMF-PBS) | sensitivity of resistant cells (Annexin V-PI apoptosis-necrosis) (A2780/CP70 cells [5]) | GSH conjugation catalyzed by GST (GST enzyme) | mitochondrial content by citrate synthase activity [6]
N.N.[Cl][Pt][Cl] [Cisplatin, cis-diamminedichloridoplatinum(II), reference compound] | 14.4 ± 1.6 | 14.7 ± 0.9 | minimal effect | did not demonstrate such activities | – | – | – | – | – | – | –
O=C(O)CCCCCBr [6-BH, 6-bromohexanoic acid] | – | – | – | – | > 100 | > 100 | – | – | – | – | –
[NH2][Pt]([NH2])([Cl])([Cl])([O]C(=O)CCCCCBr)[O]C(=O)CCCCCBr [Platin-B] | – | – | enhanced ability to reduce GSH levels | inhibited mitochondrial respiration significantly | – | – | ~−0.187 V vs. normal hydrogen electrode (NHE) | ~−0.217 V vs. normal hydrogen electrode (NHE) | high degree of sensitivity | more efficient | lower mitochondrial content
